According to EP0978280A1, “2-[…]” (priority 1997, dated 1998):
Counter-ions that a name gives are not always drawn.

Target: T1, Nicotinic acetylcholine receptor (Rattus norvegicus, UniProt P09483+P12390)
T1 construct: the rat was decapitated, and the whole brain was removed and homogenized; from tissue; host or cells: rat whole brain membrane fraction
Settings: 10 nM of the test drug; 1 nM of ^3H-cytidine; rat whole brain membrane fraction; 4°C for 75 min; nonspecific binding with 10 µM (-)nicotine
Protocol: Nicotinic acetylcholine receptor binding assay
The membrane fraction was prepared in accordance with the protocol described in Brain Res., 100, 81-87 (1977). Thus, the rat was decapitated, and the whole brain was removed and homogenized with 15 volumes of cold 0.32 M aqueous sucrose solution using a Teflon homogenizer. The homogenate was centrifuged at 4°C and 1,000 x g for 10 mm. and the supernatant obtained was centrifuged at 4°C and 20,000 x g for 20 min. Then, ice-cold distilled water was added to the pellet, and the pellet was suspended using Hiscotron®. The suspension was centrifuged at 4°C and 8,000 x g for 20 min. and the supernatant and the buffy coat layer were recovered and centrifuged again at 4°C and 40,000 x g for 20 min. The pellet obtained was suspended in cold distilled water and stored at -80°C until used.
The receptor binding experiment was performed in accordance with the protocol described in J. Pharamcol. Exp. Ther., 270, 310-318 (1994). Thus, the rat whole brain membrane fraction (ca 200 µg) was incubated in BSS-Tris buffer [composition mM: NaCl 120, KCl 5, CaCl22, MgCl22, Tris-HCl 50 (pH=7.4, at 4°C)] containing 1 nM of ^3H-cytidine and 10 nM of the test drug at 4°C for 75 min. To stop the reaction, 4 ml of cold BSS-Tris buffer was added and the reaction mixture was immediately suction-filtered on GF/B glass fiber filter paper which had been pre-soaked in 0.5% polyethyleneimine. The filter paper was recovered, 4 ml of ACS-II (Amersham, TM) was added, and the ^3H radioactivity was determined with a scintillation counter. Based on the value (specific binding) obtained after subtraction of the ^3H-binding (nonspecific binding) amount in the presence of 10 µM (-)nicotine, the inhibition rate of ^3H-cytidine binding at the 10 nM concentration of each drug was calculated.

T1 sequence (P09483 31-630): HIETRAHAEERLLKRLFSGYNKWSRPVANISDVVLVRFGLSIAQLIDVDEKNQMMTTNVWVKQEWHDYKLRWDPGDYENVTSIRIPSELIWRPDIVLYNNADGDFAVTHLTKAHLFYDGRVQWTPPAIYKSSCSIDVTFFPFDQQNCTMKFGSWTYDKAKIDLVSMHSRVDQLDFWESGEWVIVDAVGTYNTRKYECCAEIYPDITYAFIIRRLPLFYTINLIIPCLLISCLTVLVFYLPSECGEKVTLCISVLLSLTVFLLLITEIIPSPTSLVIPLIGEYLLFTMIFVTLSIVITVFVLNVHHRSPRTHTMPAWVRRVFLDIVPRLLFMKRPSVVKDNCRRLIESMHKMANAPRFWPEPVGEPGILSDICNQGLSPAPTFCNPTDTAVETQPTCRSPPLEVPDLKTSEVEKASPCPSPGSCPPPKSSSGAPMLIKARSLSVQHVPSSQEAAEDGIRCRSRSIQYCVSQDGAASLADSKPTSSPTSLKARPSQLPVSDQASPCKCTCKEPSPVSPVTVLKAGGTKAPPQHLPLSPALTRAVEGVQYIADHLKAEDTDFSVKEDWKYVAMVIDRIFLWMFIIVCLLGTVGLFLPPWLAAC
T1 sequence (P12390 25-500): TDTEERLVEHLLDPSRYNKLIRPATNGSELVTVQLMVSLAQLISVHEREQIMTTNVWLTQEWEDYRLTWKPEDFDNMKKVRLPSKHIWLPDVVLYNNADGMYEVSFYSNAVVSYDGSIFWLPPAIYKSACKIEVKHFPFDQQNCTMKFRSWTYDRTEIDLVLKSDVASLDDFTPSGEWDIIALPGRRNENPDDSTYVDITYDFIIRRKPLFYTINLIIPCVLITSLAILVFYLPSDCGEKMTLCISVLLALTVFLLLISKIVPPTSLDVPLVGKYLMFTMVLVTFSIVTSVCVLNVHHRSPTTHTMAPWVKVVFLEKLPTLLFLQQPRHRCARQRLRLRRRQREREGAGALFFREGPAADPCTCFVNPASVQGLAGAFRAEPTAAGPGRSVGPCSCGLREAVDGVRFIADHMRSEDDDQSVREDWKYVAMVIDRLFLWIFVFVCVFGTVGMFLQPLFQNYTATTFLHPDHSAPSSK

Row | SMILES | Inhibition of ^3H-Cytidine binding [%]
1 | c1cncc(C2CC3CCC2NC3)c1 (stereo not drawn) [Example 1, Syn-6-(3-pyridyl)-2-azabicyclo[2. 2. 2]octane oxalate] | 94
2 | c1ncc(C2CC3CCC2NC3)cn1 (stereo not drawn) [Example 16, Syn-6-(5-pyrimidinyl)-2-azabicyclo[2. 2. 2]octane] | 93
3 | Cc1cc(C2CC3CCC2NC3)on1 (stereo not drawn) [Example 18, Syn-6-(3-methyl-5-isoxazolyl)-2-azabicyclo[2. 2. 2]octane] | 84
4 | C1=C(c2cnccn2)C2CCC1CN2 (stereo not drawn) [Example 23, 6-(2-Pyrazinyl)-2-azabicyclo[2. 2. 2]oct-5-ene] | 39
5 | Brc1cncc(C2=CC3CCC2CN3)c1 (stereo not drawn) [Example 24, 5-(5-Bromo-3-pyridyl)-2-azabicyclo[2. 2. 2]oct-5-ene] | 92
6 | C#Cc1cncc(C2CC3CCC2NC3)c1 (stereo not drawn) [Example 28, Syn-6-(5-ethynyl-3-pyridyl)-2-azabicyclo[2. 2. 2]octane] | 91
7 | c1ccc(-c2cncc(C3CC4CCC3NC4)c2)cc1 (stereo not drawn) [Example 29, Syn-6-(5-phenyl-3-pyridyl)-2-azabicyclo[2. 2. 2]octane] | 86
8 | c1cncc(C2CC3CC2CN3)c1 (stereo not drawn) [Example 30, Syn-5-(3-pyridyl)-2-azabicyclo[2. 2. 1]heptane] | 87
9 | c1cncc(C2CC3CCCC2NC3)c1 (stereo not drawn) [Example 31, Syn-8-(3-pyridyl)-7-azabicyclo[3. 2. 2.]nonane] | 84
